Values of other authors, collected in patent US12465608B2, “Osimertinib for use in the treatment of non-small cell lung cancer” (AstraZeneca AB, priority 2019, dated 2025).

Experiments:
[1] = test system: patients with advanced mutation-positive EGFR (Ex19del or L858R) NSCLC; conditions: for median progression free survival (PFS): first-line therapy, FLAURA
[2] = test system: patients with advanced EGFR mutation-positive NSCLC who were never- or light-former smokers; conditions: erlotinib combined with carboplatin plus paclitaxel; subgroup of patients with EGFR mutations
[3] = test system: patients with EGFR mutation-positive NSCLC

SMILES | median progression free survival (PFS) [1] [months] | side effects, combination vs erlotinib monotherapy [2] | events of CNS progression, patients ([1]; irrespective of known or treated CNS metastases at trial entry) [%] | PFS hazard ratio (HR) ([1]; osimertinib vs erlotinib or gefitinib, 95% CI 0.37, 0.57, p<0.0001) | median CNS PFS ([1]; patients with CNS metastases on a baseline brain scan) | reduction in the risk of CNS progression ([1]; patients with CNS metastases on a baseline brain scan, vs standard EGFR-TKIs) [%] | CNS PFS HR ([1]; patients with CNS metastases on a baseline brain scan, vs standard EGFR-TKIs, 95% CI 0.26-0.86, p=0.014) | PFS hazard ratio (HR) ([3]; dacomitinib vs gefitinib, 95% CI 0.47-0.74, p<0.0001) | median PFS ([3]; first line treatment, EGFR mutation-positive NSCLC) [months]
C#Cc1cccc(Nc2ncnc3cc(OCCOC)c(OCCOC)cc23)c1 [erlotinib] | 10.2 | more side effects | – | – | – | – | – | – | –
C=CC(=O)Nc1cc(Nc2nccc(-c3cn(C)c4ccccc34)n2)c(OC)cc1N(C)CCN(C)C [osimertinib, N-(2-{2-dimethylaminoethyl-methylamino}-4-methoxy-5-{[4-(1-methylindol-3-yl)pyrimidin-2-yl]amino}phenyl) prop-2-enamide] | 18.9 | – | 6 | 0.46 | not reached | 52 | 0.48 | – | –
COc1cc2ncnc(Nc3ccc(F)c(Cl)c3)c2cc1NC(=O)/C=C/CN1CCCCC1 [dacomitinib, (2E)-N-{4-[(3-chloro-4-fluorophenyl)amino]-7-methoxyquinazolin-6-yl}-4-(piperidin-1-yl)but-2-enamide] | – | – | – | – | – | – | – | 0.59 | 14.7
